Experimental data from patent US20110313672A1, “CELLULAR ANTIOXIDANT ACTIVITY (CAA) ASSAY” (CORNELL UNIVERSITY, priority 2007, published 2011).
Values joined by “and” are separate entries in the source; they are usually repeats but may differ in a detail not shown here. Identical values can stand only once. “Also recorded” adds a separate entry of the source. Like-named read-outs stand apart in the source and are kept apart here.

Experiments:
[1] = test system: HepG2 cells; assay: Cellular antioxidant activity (CAA) assay: inhibition of peroxyl radical-induced DCFH oxidation; type: cell-based, human; settings: for CAA value: Example 1, pure compounds, EC50 converted to quercetin equivalents
Description: Cells (e.g., human hepatocellular carcinoma cells; HepG2) are seeded at a density of e.g., 6×10^4/well on a 96-well microplate in 100 μL growth medium/well. It is preferred that only the inside wells of e.g., a 96-well microplate are used for the assay, since the outer wells have increased variation compared to that of the inner wells. Twenty-four hours after seeding the growth medium is removed and the wells are washed with PBS. Triplicate wells are treated for 1 h with 100 μL of a test compound (e.g., pure phytochemical compounds or fruit extracts) plus 25 μM DCFH-DA dissolved in treatment medium.
600 μM ABAP is then applied to the cells in 100 μL HBSS and the 96-well microplate is placed into a plate reader e.g., Fluoroskan Ascent FL plate-reader (ThermoLabsystems, Franklin, Mass.) at 37° C. Emission at 538 nm is measured with excitation at 485 nm, for example every 5 min for 1 h. Each plate should include triplicate control and blank wells: control wells contain cells treated with DCFH-DA and oxidant; blank wells contain cells treated with dye and HBSS without oxidant.
A test compound is assayed in multiple wells of e.g., a 96-well cell culture plate. Some wells are washed with 100 μL of phosphate-buffered saline (PBS) prior to the addition of ABAP, while other wells were not washed prior to the addition of ABAP. It was noted that the measured antioxidant activity of some fruit extracts (e.g., blueberries) was different when a PBS wash was used compared to when there was no PBS wash (see Table 2; FIGS. 3 and 4). This is likely due to non-specific binding of certain antioxidant compounds to the outer membrane, or a reduced uptake of the compound, thus the ratio of antioxidant activity values obtained with a PBS wash compared to a non-PBS wash indicates the bioavailability of the test compound. In order to accurately measure the intracellular antioxidant activity of a test compound, a PBS wash prior to the addition of a peroxyl initiator (e.g, ABAP) is necessary. The values obtained for cells assayed using a PBS wash should be compared to values obtained for the same cells assayed without a PBS wash. One of skill in the art can plan and perform experiments on a test compound in the presence and absence of a PBS wash, in order to accurately assess the intracellular antioxidant capacity of the test compound.
After blank subtraction from the fluorescence readings, the area under the curve of fluorescence versus time is integrated to calculate the cellular antioxidant activity (CAA) value at each concentration of pure phytochemical compound or fruit extract as follows:
where ∫SA is the integrated area under the sample fluorescence versus time curve and ∫CA is the integrated area from the control curve. The median effective dose (EC50) was determined for the pure phytochemical compounds and fruit extracts from the median effect plot of log (fa/fu) vs. log (dose), where fa is the fraction affected and fu is the fraction unaffected by the treatment. To quantify intra-experimental variation, the EC50 values are stated as mean±SD for triplicate sets of data obtained from the same experiment. Inter-experimental variation is obtained for some representative pure phytochemical compounds and fruit extracts by averaging the fluorescence values from triplicate wells in each trial to obtain one EC50 value per experiment and calculating the mean±SD for at least four trials. In each experiment, a standard is used, for example quecetin, thus permitting the cellular antioxidant activities for a test compounds to be expressed as μmol quercetin equivalents (QE)/100 μmol compound. Fruit extracts are expressed as μmol QE/100 g fruit. In order to compare the antioxidant quality of different fruits, cellular antioxidant activity (CAA) is also calculated as μmol QE/100 μmol total phenolics.
Human hepatocellular carcinoma HepG2 cells were seeded at a density of 6×10^4/well on a 96-well microplate in 100 μL growth medium/well. […]

[2] = Oxygen radical absorbance capacity (ORAC) assay; settings: Example 3, flavonoids, mean ± SD, n ≧ 3
Description: The peroxyl radical scavenging efficacy of selected fruits was measured using the ORAC assay (Prior, R. L., et al (2003) J. Agric. Food Chem. 51:3273-3279). Briefly, 20 μL of blank, Trolox standard, or fruit extracts in 75 mM potassium phosphate buffer, pH 7.4 (working buffer), was added to triplicate wells in a black, clear-bottom, 96-well microplate. The triplicate samples were distributed throughout the microplate and were not placed side-by-side, to avoid any effects on readings due to location. In addition, no outside wells were used, as use of those wells results in greater variation. A volume of 200 μL of 0.96 μM fluorescein in working buffer was added to each well and incubated at 37° C. for 20 min, with intermittent shaking, before the addition of 20 μL of freshly prepared 119 mM ABAP in working buffer using a 12-channel pipetter. The microplate was immediately inserted into a Fluoroskan Ascent FL plate reader (ThermoLabsystems) at 37° C. The decay of fluorescence at 538 nm was measured with excitation at 485 nm every 4.5 min for 2.5 h. The areas under the fluorescence versus time curve for the samples minus the area under the curve for the blank were calculated and compared to a standard curve of the areas under the curve for 6.25, 12.5, 25, and 50 μM Trolox standards minus the area under the curve for blank. ORAC values were expressed as mean micromoles of Trolox equivalents (TE) per 100 g of fruit±SD for triplicate data from one experiment.
ORAC measurements were performed as described herein in Example 2.

[3] = Example 3, Table 7, no PBS wash
[4] = Homo sapiens, HepG2, Example 3, Table 7, PBS wash, flavonoids, mean ± SD, n=3, read-out: EC50
[5] = Homo sapiens, HepG2, Example 3, Table 7, no PBS wash, flavonoids, mean ± SD, n=3, read-out: EC50
[6] = Homo sapiens, HepG2, Example 1, Table 1, PBS wash, pure phytochemical compounds, mean ± SD, n=3, read-out: EC50 for inhibition of peroxyl radical-induced DCFH oxidation
[7] = Homo sapiens, HepG2, Example 1, Table 1, no PBS wash, pure phytochemical compounds, mean ± SD, n=3, read-out: EC50 for inhibition of peroxyl radical-induced DCFH oxidation
[8] = CAA assay, either protocol or protocol not specified
[9] = Example 3, Table 7, PBS wash, flavonoids, mean ± SD, n=3
[10] = Example 3, Table 7, no PBS wash, flavonoids, mean ± SD, n=3

SMILES | CAA ([1]; Example 3, Table 7, PBS wash) | CAA [1, 3] | EC50 [1, 4] | EC50 [1, 5] | ORAC [2] | EC50 [1, 6] | EC50 [1, 7] | cellular antioxidant activity, result in words [1, 8] | further results
O=C(O[C@@H]1Cc2c(O)cc(O)cc2O[C@@H]1c1ccc(O)c(O)c1)c1cc(O)c(O)c(O)c1 [ECG, (−)-epicatechin gallate] | 31.9 ± 2.2 μmol of QE/100 μmol | 62.1 ± 1.9 μmol of QE/100 μmol | 25.6 ± 1.8 µM | 14.2 ± 0.4 µM | 7.71 ± 1.57 cde μmol of TE/μmol | – | – | – | –
Oc1cc(O)c2c(c1)O[C@H](c1cc(O)c(O)c(O)c1)[C@H](O)C2 [EGC, (−)-epigallocatechin] | – | 12.1 ± 2.2 μmol of QE/100 μmol | > 100 µM | 74.2 ± 12.9 µM | 3.11±0.73 μmol of TE/μmol and 3.11 ± 0.73 cde μmol of TE/μmol | – | – | – | cellular antioxidant activity, result in words ([1]; PBS wash protocol): low activity at the concentrations tested
O=c1c(O)c(-c2ccc(O)cc2)oc2cc(O)cc(O)c12 [Kaempferol, kaempferol] | 85.1 ± 2.4 μmol of QE/100 μmol | 74.6 ± 4.8 μmol of QE/100 μmol | 9.57 ± 0.27 µM | 11.9 ± 0.8 µM | 7.19 ± 1.29 def μmol of TE/μmol | 6.31 ± 0.21 µM | 7.85 ± 0.51 µM | – | CAA value ([1]; PBS wash): 81.1 ± 2.7 µmol QE/100 µmol; CAA value ([1]; no PBS wash): 75.3±4.7 μmol QE/100 μmol
O=c1cc(-c2ccc(O)c(O)c2)oc2cc(O)cc(O)c12 [Luteolin, luteolin] | 29.5 ± 2.1 μmol of QE/100 μmol | 37.1 ± 0.0 μmol of QE/100 μmol | 27.7 ± 2 µM | 23.8 µM | 8.55 ± 0.85 cde μmol of TE/μmol | 23.1 ± 1 µM | 26.1 ± 0.26 µM | – | CAA value ([1]; PBS wash): 22.2 ± 1 µmol QE/100 µmol; CAA value ([1]; no PBS wash): 22.6±0.2 μmol QE/100 μmol
O=c1c(O)c(-c2cc(O)c(O)c(O)c2)oc2cc(O)cc(O)c12 [Myricetin, myricetin] | 11.5 ± 0.7 μmol of QE/100 μmol | 28.4 ± 0.9 μmol of QE/100 μmol | 70.7 ± 4.2 µM | 31.1 ± 1 µM | 4.55±0.50 μmol of TE/μmol and 4.55 ± 0.50 fgh μmol of TE/μmol | 15.4 ± 0.5 µM | 16.1 ± 1.7 µM | – | CAA value ([1]; PBS wash): 33.1 ± 1 µmol QE/100 µmol; CAA value ([1]; no PBS wash): 36.8±3.8 μmol QE/100 μmol; EC50 ([1]; Homo sapiens, HepG2, Example 3, text, no PBS wash, read-out: EC50): 31.1 ± 1 µM
O=c1c(O[C@@H]2O[C@H](CO)[C@@H](O)[C@H](O)[C@H]2O)c(-c2ccc(O)c(O)c2)oc2cc(O)cc(O)c12 [Q-3-G, quercetin-3-β-D-glucoside] | 6.6 ± 0.1 μmol of QE/100 μmol | 7.7 ± 0.1 μmol of QE/100 μmol | – | – | 8.11 ± 1.86 cde μmol of TE/μmol | – | – | low amount of activity; also recorded: low or no cellular antioxidant activity | EC50 ([1]; Example 3, Table 7, PBS wash, flavonoids, mean ± SD, n=3, read-out: EC50): 122 ± 1 µM; EC50 ([1]; Example 3, Table 7, no PBS wash, flavonoids, mean ± SD, n=3, read-out: EC50): 115 ± 2 µM
O=c1c(O)c(-c2ccc(O)c(O)c2)oc2cc(O)cc(O)c12 [Quercetin, quercetin] | 105.7 ± 3.7 μmol of QE/100 μmol | 99.1 ± 4.8 μmol of QE/100 μmol | 7.71 ± 0.26 µM | 8.93 ± 0.44 µM | 8.04 ± 2.37 cde μmol of TE/μmol | – | 5.92 ± 0.07 µM | – | EC50 ([1]; Example 1, Table 1, PBS wash, pure phytochemical compounds, mean ± SD, n=3, read-out: EC50 for inhibition of peroxyl radical-induced DCFH oxidation): 5.09 ± 0.19 µM; EC50 ([1]; Homo sapiens, HepG2, Table 2, no PBS wash, mean ± SD over the trials, read-out: Interexperimental EC50): 5.89 ± 0.36 µM; EC50 ([1]; Homo sapiens, HepG2, Table 2, no PBS wash, one line per trial (trials 1-5), n=3, read-out: Intraexperimental EC50): 6.07 ± 0.25 µM; EC50 ([1]; Homo sapiens, HepG2, Table 3, PBS wash, mean ± SD over the trials, read-out: Interexperimental EC50): 5.12 ± 0.58 µM; EC50 ([1]; Homo sapiens, HepG2, Table 3, PBS wash, one line per trial (trials 1-5), n=3, read-out: Intraexperimental EC50): 4.48 ± 0.18 µM
O=C1c2c(O)cc(O)cc2O[C@H](c2ccc(O)c(O)c2)[C@H]1O [Taxifolin, taxifolin] | – | – | > 200 µM | > 200 µM | 9.74 ± 1.20 bcd μmol of TE/μmol | > 150 µM | > 150 µM | low or no cellular antioxidant activity; also recorded: low CAA | cellular antioxidant activity, result in words ([1]; PBS wash protocol): low activity at the concentrations tested; cellular antioxidant activity, result in words ([1]; no PBS wash protocol): activity only at doses much higher than their cytotoxic concentrations; also recorded: low, but unquantifiable, activity; also recorded: low but unquantifiable activity
O=c1c(O)c(-c2ccccc2)oc2cc(O)cc(O)c12 [galangin] | 107.8 ± 6.4 μmol of QE/100 μmol | 66.3 ± 1.1 μmol of QE/100 μmol | 7.56 ± 0.46 µM | 13.3 ± 0.2 µM | 2.63 ± 1.31 gh μmol of TE/μmol | – | – | – | ORAC ([2]; listed as Galangin): 2.63±1.31 μmol of TE/μmol
O=c1c(-c2ccc(O)cc2)coc2cc(O)cc(O)c12 [genistein] | – | – | – | – | 13.4±2.8 μmol of TE/μmol and 13.4 ± 2.8 a μmol of TE/μmol | – | – | no cellular antioxidant activity; also recorded: no CAA | cellular antioxidant activity, result in words ([1]; CAA assay, either protocol or protocol not specified, listed as Genistein): no activity; EC50 [1, 9]: no activity; EC50 [1, 10]: no activity
O=c1c(O)c(-c2ccc(O)cc2O)oc2cc(O)cc(O)c12 [morin] | 18.6 ± 18 μmol of QE/100 μmol | 32.1 ± 2.1 μmol of QE/100 μmol | 43.9 ± 4.3 µM | 27.6 ± 1.8 µM | 6.12±1.95 μmol of TE/μmol and 6.12 ± 1.95 efg μmol of TE/μmol | – | – | – | EC50 ([1]; Homo sapiens, HepG2, Example 3, text b252, PBS wash, read-out: EC50): 43.9 ± 0.43 µM; EC50 ([1]; Homo sapiens, HepG2, Example 3, text b252, no PBS wash, read-out: EC50): 27.6 ± 1.8 µM
O=C1C[C@@H](c2ccc(O)cc2)Oc2cc(O)cc(O)c21 [naringenin] | – | – | – | – | 9.23 ± 2.79 bcd μmol of TE/μmol | – | – | no activity; also recorded: no CAA | EC50 [1, 9]: no activity; EC50 [1, 10]: no activity; cellular antioxidant activity, result in words ([1]; no PBS wash protocol): none
